From ChEMBL document CHEMBL1132355, “Novel arylpyrazino[2,3-c][1,2,6]thiadiazine 2,2-dioxides as platelet aggregation inhibitors. 2. Optimization by quantitative structure-activity relationships” (J Med Chem, 1999)

Test: Inhibition of platelet aggregation (rabbit platelet-rich plasma),induced by arachidonic acid, (100% inhibitory response)
Conditions: Oryctolagus cuniculus

SMILES	EC100 [µg/mL]
CCN1c2nc(-c3ccccc3)c(-c3ccccc3)nc2C(N)=NS1(=O)=O	0.3
CCN1c2ncc(-c3ccccc3)nc2C(N)=NS1(=O)=O	1
CCN1c2nc(-c3cccs3)c(-c3cccs3)nc2C(N)=NS1(=O)=O	3
CCN1c2nc(-c3ccccc3)c(C)nc2C(N)=NS1(=O)=O	1
CN1c2ncc(-c3ccccc3F)nc2C(N)=NS1(=O)=O	0.03
CCN1c2nc(-c3ccc(Cl)cc3)c(-c3ccc(Cl)cc3)nc2C(N)=NS1(=O)=O	3
NC1=NS(=O)(=O)N(Cc2ccccc2)c2nc(-c3ccccc3)c(-c3ccccc3)nc21	3
CCOC(=O)CN1c2nc(-c3ccccc3)c(-c3ccccc3)nc2C(N)=NS1(=O)=O	0.1
CCOc1nc2c(nc1-c1ccccc1)C(N)=NS(=O)(=O)N2C	0.3
COc1cccc(-c2nc3c(nc2-c2cccc(OC)c2)N(C)S(=O)(=O)N=C3N)c1	> 10
CN1c2nc(-c3ccc(F)cc3)c(-c3ccc(F)cc3)nc2C(N)=NS1(=O)=O	0.3
CCN1c2nc(-c3ccccc3)c(Br)nc2C(N)=NS1(=O)=O	1
CCN1c2nc(C)c(-c3ccccc3)nc2C(N)=NS1(=O)=O	1
CCN1c2nc(-c3ccccc3)c(Cl)nc2C(N)=NS1(=O)=O	10
COc1nc2c(nc1-c1ccccc1)C(N)=NS(=O)(=O)N2C	0.1
CN1c2nc(-c3ccco3)c(-c3ccco3)nc2C(N)=NS1(=O)=O	1
CCOC(=O)CN1c2nc(-c3ccccc3)cnc2C(N)=NS1(=O)=O	> 10
CCN1c2nc(-c3ccccc3)cnc2C(N)=NS1(=O)=O	> 10
Cc1ccc(-c2cnc3c(n2)N(C)S(=O)(=O)N=C3N)cc1	> 10
CC(C)(C)OC(=O)CN1c2nc(-c3ccccc3)c(-c3ccccc3)nc2C(N)=NS1(=O)=O	1
CN1c2ncc(-c3ccccc3)nc2C(N)=NS1(=O)=O	0.3
CCOc1nc2c(nc1-c1ccc(Cl)cc1)C(N)=NS(=O)(=O)N2CC	10
COc1ccc(-c2nc3c(nc2-c2ccc(OC)cc2)N(C)S(=O)(=O)N=C3N)cc1	0.001
CN1c2nc(-c3ccc(Br)cc3)c(-c3ccc(Br)cc3)nc2C(N)=NS1(=O)=O	1
CCOC(=O)CN1c2nc(-c3ccccc3)c(Br)nc2C(N)=NS1(=O)=O	10
CN1c2nc(-c3ccccn3)c(-c3ccccn3)nc2C(N)=NS1(=O)=O	3
NC(=O)CN1c2nc(-c3ccccc3)c(-c3ccccc3)nc2C(N)=NS1(=O)=O	3
